Source: patent publication US11203601B2, “Tricyclic compounds as glycogen synthase kinase 3 (GSK3) inhibitors and uses thereof” (The Broad Institute, Inc., priority 2017, dated 2021)

Experiments:
NEK1 = NEK1 (Homo sapiens (Human), UniProt Q96PY6); assay: Carna kinome panel; format: biochemical; settings: read-out: % Inhibition at 10 μM of the test compound
NPM1-ALK = NPM1-ALK (Homo sapiens (Human), UniProt P06748+Q9UM73); assay: Carna kinome panel; format: biochemical; settings: read-out: % Inhibition at 10 μM of the test compound
PRKX = PRKX (Homo sapiens (Human), UniProt P51817); assay: Carna kinome panel; format: biochemical; settings: read-out: % Inhibition at 10 μM of the test compound
YES(T348I) = YES(T348I) (Homo sapiens (Human), UniProt P07947, T348I); assay: Carna kinome panel; format: biochemical; settings: read-out: % Inhibition at 10 μM of the test compound
MGC42105 = MGC42105 (Homo sapiens (Human), UniProt Q8IY84); assay: Carna kinome panel; format: biochemical; settings: read-out: % Inhibition at 10 μM of the test compound
CK1ε = CK1ε (Homo sapiens (Human), UniProt P49674); assay: Carna kinome panel; format: biochemical; settings: read-out: % Inhibition at 10 μM of the test compound
PKACα = PKACα (Homo sapiens (Human), UniProt P17612); assay: Carna kinome panel; format: biochemical; settings: read-out: % Inhibition at 10 μM of the test compound
DYRK1B = DYRK1B (Homo sapiens (Human), UniProt Q9Y463); assay: Carna kinome panel; format: biochemical; settings: read-out: % Inhibition at 10 μM of the test compound
Method: Briefly, a selection of compounds was screened against a panel of kinases at a single concentration of 10 μM. […] This was completed using one of two assays, depending on the kinase being examined: 1) IMAP Assay. A solution of 4× inhibitor, 4× substrate/ATP/metal solution and 2× kinase solution was prepared with assay buffer (20 mM HEPES, 0.01% Tween-20, 2 mM DTT, pH 7.4) and mixed, then incubated in 384-well black plates for 1 hour at room temperature. The IMAP binding reagent (IMAP Screening Express kit; Molecular Devices) was added to each well and incubated for 30 minutes. […] 2) Off-Chip Mobility Shift Assay (MSA). A solution of 4× inhibitor, 4× substrate/ATP/metal solution and 2× kinase solution was prepared with assay buffer (20 mM HEPES, 0.01% Triton X-100, 2 mM DTT, pH 7.5) and mixed, then incubated in 384-well plates for 1 or 5 hours depending on the kinase, at room temperature. Termination buffer (QuickScout Screening assist MSA; Carna Biosciences) was added to each well. The entire reaction mixture was then applied to a LabChip3000 system (Caliper Life Science), and the product and substrate peptide peaks were separated and quantified. […] The entire reaction mixture was then applied to a LabChip3000 system (Caliper Life Science), and the product and substrate peptide peaks were separated and quantified.

PKCη = PKCη (Homo sapiens (Human), UniProt P24723); assay: Carna kinome panel; format: biochemical; settings: read-out: % Inhibition at 10 μM of the test compound
KIT(V654A) = KIT(V654A) (Homo sapiens (Human), UniProt P10721, V654A); assay: Carna kinome panel; format: biochemical; settings: read-out: % Inhibition at 10 μM of the test compound
ABL = ABL (Homo sapiens (Human), UniProt P00519); assay: Carna kinome panel; format: biochemical; settings: read-out: % Inhibition at 10 μM of the test compound
MARK4 = MARK4 (Homo sapiens (Human), UniProt Q96L34); assay: Carna kinome panel; format: biochemical; settings: read-out: % Inhibition at 10 μM of the test compound
MAP4K2 = MAP4K2 (Homo sapiens (Human), UniProt Q12851); assay: Carna kinome panel; format: biochemical; settings: read-out: % Inhibition at 10 μM of the test compound
CRIK = CRIK (Homo sapiens (Human), UniProt O14578); assay: Carna kinome panel; format: biochemical; settings: read-out: % Inhibition at 10 μM of the test compound
MRCKβ = MRCKβ (Homo sapiens (Human), UniProt Q9Y5S2); assay: Carna kinome panel; format: biochemical; settings: read-out: % Inhibition at 10 μM of the test compound
MARK3 = MARK3 (Homo sapiens (Human), UniProt P27448); assay: Carna kinome panel; format: biochemical; settings: read-out: % Inhibition at 10 μM of the test compound
FGFR1 = FGFR1 (Homo sapiens (Human), UniProt P11362); assay: Carna kinome panel; format: biochemical; settings: read-out: % Inhibition at 10 μM of the test compound
PLK1 = PLK1 (Homo sapiens (Human), UniProt P53350); assay: Carna kinome panel; format: biochemical; settings: read-out: % Inhibition at 10 μM of the test compound
FGFR4 = FGFR4 (Homo sapiens (Human), UniProt P22455); assay: Carna kinome panel; format: biochemical; settings: read-out: % Inhibition at 10 μM of the test compound
PAK1 = PAK1 (Homo sapiens (Human), UniProt Q13153); assay: Carna kinome panel; format: biochemical; settings: read-out: % Inhibition at 10 μM of the test compound
ALK(C1156Y) = ALK(C1156Y) (Homo sapiens (Human), UniProt Q9UM73, C1156Y); assay: Carna kinome panel; format: biochemical; settings: read-out: % Inhibition at 10 μM of the test compound
CK1γ2 = CK1γ2 (Homo sapiens (Human), UniProt P78368); assay: Carna kinome panel; format: biochemical; settings: read-out: % Inhibition at 10 μM of the test compound
DDR2 = DDR2 (Homo sapiens (Human), UniProt Q16832); assay: Carna kinome panel; format: biochemical; settings: read-out: % Inhibition at 10 μM of the test compound
CaMK1δ = CaMK1δ (Homo sapiens (Human), UniProt Q8IU85); assay: Carna kinome panel; format: biochemical; settings: read-out: % Inhibition at 10 μM of the test compound
MAPKAPK 5 = MAPKAPK 5 (Homo sapiens (Human), UniProt Q8IW41); assay: Carna kinome panel; format: biochemical; settings: read-out: % Inhibition at 10 μM of the test compound
PLK2 = PLK2 (Homo sapiens (Human), UniProt Q9NYY3); assay: Carna kinome panel; format: biochemical; settings: read-out: % Inhibition at 10 μM of the test compound
MAP3K3_Cascade = MAP3K3_Cascade (Homo sapiens (Human), UniProt Q99759); assay: Carna kinome panel; format: biochemical; settings: read-out: % Inhibition at 10 μM of the test compound
MET(Y1235D) = MET(Y1235D) (Homo sapiens (Human), UniProt P08581, Y1235D); assay: Carna kinome panel; format: biochemical; settings: read-out: % Inhibition at 10 μM of the test compound
Haspin = Haspin (Homo sapiens (Human), UniProt Q8TF76); assay: Carna kinome panel; format: biochemical; settings: read-out: % Inhibition at 10 μM of the test compound
PDGFRα = PDGFRα (Homo sapiens (Human), UniProt P16234); assay: Carna kinome panel; format: biochemical; settings: read-out: % Inhibition at 10 μM of the test compound
NEK6 = NEK6 (Homo sapiens (Human), UniProt Q9HC98); assay: Carna kinome panel; format: biochemical; settings: read-out: % Inhibition at 10 μM of the test compound
YES = YES (Homo sapiens (Human), UniProt P07947); assay: Carna kinome panel; format: biochemical; settings: read-out: % Inhibition at 10 μM of the test compound
FER = FER (Homo sapiens (Human), UniProt P16591); assay: Carna kinome panel; format: biochemical; settings: read-out: % Inhibition at 10 μM of the test compound
PKD2 = PKD2 (Homo sapiens (Human), UniProt Q9BZL6); assay: Carna kinome panel; format: biochemical; settings: read-out: % Inhibition at 10 μM of the test compound
TNK1 = TNK1 (Homo sapiens (Human), UniProt Q13470); assay: Carna kinome panel; format: biochemical; settings: read-out: % Inhibition at 10 μM of the test compound
GSK3α = GSK3α (Homo sapiens (Human), UniProt P49840); assay: biochemical
Method: A selection of compounds was screened against a selected panel of kinases based on single point inhibitory ability to determine absolute inhibitory activity, leading to selectivity measurements. The assay utilized was identical to that of the single point inhibitory activity determination (MSA) but run in dose response. A solution of 4× inhibitor (5 μL), 4× substrate/ATP Metal solution (5 μL), and 2× Kinase solution (10 μL) was prepared with assay buffer (20 mM HEPES, 0.01% Triton X-100, 2 mM DTT, pH 7.5) and mixed/incubated in 384 well plates for 1 or 5 hours depending on the kinase, at room temperature. A solution of termination buffer (QuickScout Screening assist MSA; Carna Biosciences) (60 μL) was added to each well. The entire reaction mixture was then applied to a LabChip3000 system (Caliper Life Science) and the product and substrate peptide peaks were separated and quantified.
Briefly, a selection of compounds was screened against a panel of kinases at a single concentration of 10 μM. […] The entire reaction mixture was then applied to a LabChip3000 system (Caliper Life Science), and the product and substrate peptide peaks were separated and quantified. […] The entire reaction mixture was then applied to a LabChip3000 system (Caliper Life Science), and the product and substrate peptide peaks were separated and quantified.

MET = MET (Homo sapiens (Human), UniProt P08581); assay: Carna kinome panel; format: biochemical; settings: read-out: % Inhibition at 10 μM of the test compound
WNK3 = WNK3 (Homo sapiens (Human), UniProt Q9BYP7); assay: Carna kinome panel; format: biochemical; settings: read-out: % Inhibition at 10 μM of the test compound
CDK5/p25 = CDK5/p25 (Homo sapiens (Human), UniProt Q00535); assay: Carna kinome panel; format: biochemical; settings: read-out: % Inhibition at 10 μM of the test compound
ROCK2 = ROCK2 (Homo sapiens (Human), UniProt O75116); assay: Carna kinome panel; format: biochemical; settings: read-out: % Inhibition at 10 μM of the test compound

Chain of GSK3α (P49840 whole entry): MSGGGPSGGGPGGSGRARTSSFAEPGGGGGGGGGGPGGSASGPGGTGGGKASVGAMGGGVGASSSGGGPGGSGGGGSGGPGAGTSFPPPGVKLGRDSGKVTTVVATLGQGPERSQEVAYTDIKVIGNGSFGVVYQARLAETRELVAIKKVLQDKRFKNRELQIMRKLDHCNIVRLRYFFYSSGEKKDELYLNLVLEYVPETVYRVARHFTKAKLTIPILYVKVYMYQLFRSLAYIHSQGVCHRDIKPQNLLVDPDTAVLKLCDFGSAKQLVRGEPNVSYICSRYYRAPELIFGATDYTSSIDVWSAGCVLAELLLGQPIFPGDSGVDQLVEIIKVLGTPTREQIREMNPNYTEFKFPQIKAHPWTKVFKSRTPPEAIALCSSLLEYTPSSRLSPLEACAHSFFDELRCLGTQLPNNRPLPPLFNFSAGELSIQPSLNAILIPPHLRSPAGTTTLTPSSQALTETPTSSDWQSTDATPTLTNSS
Chain of DYRK1B (Q9Y463 whole entry): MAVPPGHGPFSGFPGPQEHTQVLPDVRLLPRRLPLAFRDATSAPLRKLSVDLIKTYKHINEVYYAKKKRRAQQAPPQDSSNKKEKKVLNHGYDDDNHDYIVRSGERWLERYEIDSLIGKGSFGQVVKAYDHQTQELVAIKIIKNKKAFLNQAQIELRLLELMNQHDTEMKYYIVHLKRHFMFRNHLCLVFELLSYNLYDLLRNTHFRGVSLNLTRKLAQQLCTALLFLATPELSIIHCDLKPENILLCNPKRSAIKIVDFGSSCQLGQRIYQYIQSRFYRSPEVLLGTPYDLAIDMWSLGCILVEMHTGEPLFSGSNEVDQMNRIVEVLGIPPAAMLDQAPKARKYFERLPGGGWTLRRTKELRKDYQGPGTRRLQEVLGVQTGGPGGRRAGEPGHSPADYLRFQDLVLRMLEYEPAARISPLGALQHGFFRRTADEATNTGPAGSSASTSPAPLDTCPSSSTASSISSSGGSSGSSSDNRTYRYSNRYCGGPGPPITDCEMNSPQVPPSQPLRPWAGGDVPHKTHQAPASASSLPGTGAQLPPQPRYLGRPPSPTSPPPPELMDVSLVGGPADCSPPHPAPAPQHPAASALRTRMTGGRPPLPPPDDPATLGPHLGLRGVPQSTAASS
Chain of CRIK (O14578 whole entry, species assumed): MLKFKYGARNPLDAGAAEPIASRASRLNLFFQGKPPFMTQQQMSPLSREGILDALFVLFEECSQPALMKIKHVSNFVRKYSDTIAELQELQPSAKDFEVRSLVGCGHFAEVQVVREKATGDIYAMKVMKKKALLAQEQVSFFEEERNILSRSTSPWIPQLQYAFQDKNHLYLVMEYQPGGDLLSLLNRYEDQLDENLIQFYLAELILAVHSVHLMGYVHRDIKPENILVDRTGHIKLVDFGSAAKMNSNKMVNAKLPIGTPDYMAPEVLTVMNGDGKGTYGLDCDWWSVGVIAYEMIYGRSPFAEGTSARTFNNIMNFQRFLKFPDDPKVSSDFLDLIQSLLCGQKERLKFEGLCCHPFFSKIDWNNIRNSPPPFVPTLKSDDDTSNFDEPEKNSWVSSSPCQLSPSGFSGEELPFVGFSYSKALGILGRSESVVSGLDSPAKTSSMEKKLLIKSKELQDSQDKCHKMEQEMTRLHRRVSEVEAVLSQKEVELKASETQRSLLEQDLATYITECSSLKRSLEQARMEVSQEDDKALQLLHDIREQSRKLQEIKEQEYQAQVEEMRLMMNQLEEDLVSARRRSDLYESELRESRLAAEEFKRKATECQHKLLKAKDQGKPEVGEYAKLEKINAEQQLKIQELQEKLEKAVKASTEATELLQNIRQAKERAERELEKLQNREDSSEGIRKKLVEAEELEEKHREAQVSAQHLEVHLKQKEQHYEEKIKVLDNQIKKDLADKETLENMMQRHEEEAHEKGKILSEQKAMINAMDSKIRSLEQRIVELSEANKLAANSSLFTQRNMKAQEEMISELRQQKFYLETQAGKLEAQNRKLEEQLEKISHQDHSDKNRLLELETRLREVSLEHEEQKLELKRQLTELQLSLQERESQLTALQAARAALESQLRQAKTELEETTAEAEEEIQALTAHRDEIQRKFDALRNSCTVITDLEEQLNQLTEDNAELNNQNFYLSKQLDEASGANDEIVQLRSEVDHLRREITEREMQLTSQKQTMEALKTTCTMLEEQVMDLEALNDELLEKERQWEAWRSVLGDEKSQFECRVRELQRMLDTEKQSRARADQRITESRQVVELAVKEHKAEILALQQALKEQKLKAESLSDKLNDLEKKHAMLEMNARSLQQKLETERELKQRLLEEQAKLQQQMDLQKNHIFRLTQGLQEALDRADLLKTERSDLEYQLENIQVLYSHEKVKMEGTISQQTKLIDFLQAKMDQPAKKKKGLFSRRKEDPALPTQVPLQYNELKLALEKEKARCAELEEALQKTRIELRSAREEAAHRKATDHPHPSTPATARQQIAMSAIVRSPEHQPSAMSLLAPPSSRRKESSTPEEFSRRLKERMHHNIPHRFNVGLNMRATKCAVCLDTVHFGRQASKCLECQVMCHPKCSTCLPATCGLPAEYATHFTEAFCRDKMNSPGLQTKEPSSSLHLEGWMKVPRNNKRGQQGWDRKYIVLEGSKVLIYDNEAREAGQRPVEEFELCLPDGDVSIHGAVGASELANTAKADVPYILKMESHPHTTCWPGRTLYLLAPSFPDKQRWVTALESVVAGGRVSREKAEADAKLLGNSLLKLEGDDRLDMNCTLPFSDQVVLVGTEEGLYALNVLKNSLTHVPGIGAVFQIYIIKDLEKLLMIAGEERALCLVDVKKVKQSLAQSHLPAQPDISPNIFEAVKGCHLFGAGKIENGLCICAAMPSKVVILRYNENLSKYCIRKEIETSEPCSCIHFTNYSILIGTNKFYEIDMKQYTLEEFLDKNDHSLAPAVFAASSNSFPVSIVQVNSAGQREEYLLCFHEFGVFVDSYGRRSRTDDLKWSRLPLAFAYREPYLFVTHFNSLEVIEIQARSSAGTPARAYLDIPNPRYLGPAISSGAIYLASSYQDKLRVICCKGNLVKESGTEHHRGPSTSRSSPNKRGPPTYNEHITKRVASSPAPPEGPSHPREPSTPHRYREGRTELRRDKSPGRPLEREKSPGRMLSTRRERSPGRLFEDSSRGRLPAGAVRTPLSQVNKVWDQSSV
Chain of YES (P07947 whole entry): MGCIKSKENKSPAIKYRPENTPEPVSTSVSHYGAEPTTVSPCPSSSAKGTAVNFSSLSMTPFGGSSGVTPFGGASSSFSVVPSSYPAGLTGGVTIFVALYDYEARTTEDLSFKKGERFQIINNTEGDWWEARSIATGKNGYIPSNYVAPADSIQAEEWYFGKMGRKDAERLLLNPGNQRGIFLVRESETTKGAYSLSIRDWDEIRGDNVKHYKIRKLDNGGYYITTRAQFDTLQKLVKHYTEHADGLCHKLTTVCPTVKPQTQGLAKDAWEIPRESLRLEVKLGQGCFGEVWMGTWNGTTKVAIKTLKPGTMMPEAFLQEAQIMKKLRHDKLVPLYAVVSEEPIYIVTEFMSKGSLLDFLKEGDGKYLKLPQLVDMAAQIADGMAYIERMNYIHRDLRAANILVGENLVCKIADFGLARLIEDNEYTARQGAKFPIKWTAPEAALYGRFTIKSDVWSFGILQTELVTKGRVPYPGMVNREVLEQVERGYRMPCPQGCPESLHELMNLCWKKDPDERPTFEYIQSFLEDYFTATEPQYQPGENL
Chain of MET(Y1235D) (P08581 25-1390 Y1235D): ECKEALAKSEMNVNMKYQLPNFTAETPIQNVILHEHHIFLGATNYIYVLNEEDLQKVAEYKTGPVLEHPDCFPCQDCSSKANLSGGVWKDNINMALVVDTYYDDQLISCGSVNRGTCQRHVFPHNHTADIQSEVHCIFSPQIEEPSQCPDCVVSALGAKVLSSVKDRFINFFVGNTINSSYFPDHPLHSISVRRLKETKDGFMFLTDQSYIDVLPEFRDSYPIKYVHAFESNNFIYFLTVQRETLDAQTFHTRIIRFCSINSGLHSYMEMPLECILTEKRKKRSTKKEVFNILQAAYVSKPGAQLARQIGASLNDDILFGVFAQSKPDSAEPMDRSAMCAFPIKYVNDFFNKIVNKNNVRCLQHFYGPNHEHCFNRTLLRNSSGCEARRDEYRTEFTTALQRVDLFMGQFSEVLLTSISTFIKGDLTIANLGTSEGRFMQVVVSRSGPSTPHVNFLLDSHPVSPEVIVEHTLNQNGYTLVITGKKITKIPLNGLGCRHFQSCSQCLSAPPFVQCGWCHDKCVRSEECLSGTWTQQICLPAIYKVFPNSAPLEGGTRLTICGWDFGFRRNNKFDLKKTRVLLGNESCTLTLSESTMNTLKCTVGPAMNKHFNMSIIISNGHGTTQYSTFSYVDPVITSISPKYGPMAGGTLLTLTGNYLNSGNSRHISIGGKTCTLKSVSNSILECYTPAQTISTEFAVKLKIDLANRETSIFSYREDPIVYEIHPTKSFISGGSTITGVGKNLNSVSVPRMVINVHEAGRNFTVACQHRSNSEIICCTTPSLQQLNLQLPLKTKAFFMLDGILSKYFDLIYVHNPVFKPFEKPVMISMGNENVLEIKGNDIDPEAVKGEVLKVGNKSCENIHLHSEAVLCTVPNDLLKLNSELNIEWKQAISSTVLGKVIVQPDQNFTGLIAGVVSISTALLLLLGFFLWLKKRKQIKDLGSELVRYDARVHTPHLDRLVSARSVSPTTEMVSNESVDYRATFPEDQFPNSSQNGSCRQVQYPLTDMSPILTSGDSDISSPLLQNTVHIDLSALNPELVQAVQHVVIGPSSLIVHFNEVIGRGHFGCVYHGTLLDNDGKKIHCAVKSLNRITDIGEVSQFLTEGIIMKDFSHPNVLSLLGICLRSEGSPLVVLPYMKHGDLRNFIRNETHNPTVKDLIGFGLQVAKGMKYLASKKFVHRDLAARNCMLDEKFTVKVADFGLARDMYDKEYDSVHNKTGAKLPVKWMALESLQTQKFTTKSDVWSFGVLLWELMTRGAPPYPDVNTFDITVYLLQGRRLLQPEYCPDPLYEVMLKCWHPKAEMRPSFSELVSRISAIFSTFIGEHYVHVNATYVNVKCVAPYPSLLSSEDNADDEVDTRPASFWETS

CCC1(c2ccccc2)C2=C(CC(C)(C)CC2=O)Nc2ncsc21 (centres unmarked) [Compound 1, 9-Ethyl-6,6-dimethyl-9-phenyl-5,6,7,9-tetrahydrothiazolo[4,5-b]quinolin-8(4H)-one]
inhibition at 10 µM (NEK1): 7.5%
inhibition at 10 µM (NPM1-ALK): -7.5%
inhibition at 10 µM (PRKX): 4.2%
inhibition at 10 µM (YES(T348I)): 13.5%
inhibition at 10 µM (MGC42105): 4.3%
inhibition at 10 µM (CK1ε): 3.1%
inhibition at 10 µM (PKACα): -0.6%
inhibition at 10 µM (DYRK1B): -18.1%
inhibition at 10 µM (PKCη): 9.3%
inhibition at 10 µM (KIT(V654A)): -3.5%
inhibition at 10 µM (ABL): -2.7%
inhibition at 10 µM (MARK4): -15.7%
inhibition at 10 µM (MAP4K2): 1.1%
inhibition at 10 µM (CRIK): 1.6%
inhibition at 10 µM (MRCKβ): 2%
inhibition at 10 µM (MARK3): -3.3%
inhibition at 10 µM (FGFR1): -5%
inhibition at 10 µM (PLK1): -5.3%
inhibition at 10 µM (FGFR4): 2.8%
inhibition at 10 µM (PAK1): 0.3%
inhibition at 10 µM (ALK(C1156Y)): -3.7%
inhibition at 10 µM (CK1γ2): 3.1%
inhibition at 10 µM (DDR2): 0.6%
inhibition at 10 µM (CaMK1δ): 1.3%
inhibition at 10 µM (MAPKAPK 5): -8.5%
inhibition at 10 µM (PLK2): 1.7%
inhibition at 10 µM (MAP3K3_Cascade): 11.1%
inhibition at 10 µM (MET(Y1235D)): -12.2%
inhibition at 10 µM (Haspin): 1.5%
inhibition at 10 µM (PDGFRα): -10.1%
inhibition at 10 µM (NEK6): 20.9%
inhibition at 10 µM (YES): 3.3%
inhibition at 10 µM (FER): -7.5%
inhibition at 10 µM (PKD2): -13.8%
inhibition at 10 µM (TNK1): 11.7%
IC50 (GSK3α): 31.3 nM
inhibition at 10 µM (GSK3α; read-out: % Inhibition at 10 μM of the test compound): 98%
inhibition at 10 µM (MET): 8.9%
inhibition at 10 µM (WNK3): 0.3%
inhibition at 10 µM (CDK5/p25): 41.2%
inhibition at 10 µM (ROCK2): -3.1%
